# Experiments:
# TMD8 BTK WT cells = assay: In vivo mouse xenograft study, TMD8 BTK WT; set-up: species or system mice; details: BTK-I BID alone; BTK WT driven TMD8 (DLBCL) xenograft
# Experimental: In all studies, test articles are administered alone and in combination, following different dosing regimens.
# Human TMD8 BTK WT, TMD8 BTK C481S or REC-1 cells are injected subcutaneously in the right flank of mice. When tumors reach a mean volume between 150 mm^3 and 400 mm^3, mice are randomized based on their tumor volumes. Mice are next dosed for 14 to 23 days depending on the study design. The potencies of the compounds stand-alone or in combination on the inhibition of the tumor growth are assessed based on the tumor volume changes and weights after collection at the end of the study. Additionally, in the TMD8 studies, the plasma concentrations of test articles are measured at multiple time points after the last dose.
# [1] = system: Waldenstrom's macroglobulinemia; assay: Phase 1/2 clinical study, Waldenstrom's macroglobulinemia patients; assay type: in vivo, human
# Description: The study is an open-label, multi-center study of oral BTK-I to evaluate safety and efficacy as monotherapy and as part of combination therapy in patients with CLL/SLL and NHL who have failed or are intolerant to standard of care. This study includes monotherapy as well as combination treatment parts. The monotherapy part includes Phase 1 dose escalation and dose expansion as well as Phase 2. The combination therapy part is a Phase 1b (safety assessment and expansion) of BTK-I in combination with venetoclax, with or without anti-CD20 therapy. Phase 1 dose escalation will proceed prior to start of Phase 1b or Phase 2. Once a recommended Phase 2 dose (RP2D) is identified in Phase 1, enrollment can commence to the Phase 1b combination therapies and Phase 2 monotherapy cohorts.
# The primary objectives of the Phase 1 Dose Escalation and Expansion part of the study is to determine the maximum tolerated dose (MTD)/RP2D of oral BTK-I in patients with previously treated CLL/SLL and B-cell NHL.
# Patients are enrolled with histologically confirmed CLL/SLL or B-cell NHL who have failed or are intolerant to at least two prior standard of care regimens given in combination or sequentially or have received at least one prior BTK inhibitor-containing regimen when BTK inhibitor is approved in first line.
# BTK-I is administered in oral tablet form. Dose escalation will follow a 3+3 design starting with a 25 mg QD dose (followed by 50 mg QD (dose level cohort 2), 100 mg QD (dose level cohort 3), 150 mg QD (dose level cohort 4), 200 mg QD (dose level cohort 5), 250 mg QD (dose level cohort 6), and 300 mg QD (dose level cohort 7)). Cycle length will be 28 days. The drug limiting toxicity (DLT) period will be 28 days, commencing with the first dose of BTK-I.
# The primary objective of the Phase 2 is to assess the primary anti-tumor activity of BTK-I based on overall response rate (ORR) and as assessed by the Independent Review Committee.
# At the RP2D up to ˜600 patients with CLL/SLL or NHL will be enrolled to one of the following cohorts: • Cohort 1: Non-blastoid MCL patients treated with a prior BTK-inhibitor. • Cohort 2: CLL/SLL patients treated with 2 or more prior regimens, including a BTK inhibitor-containing regimen. • Cohort 3: CLL/SLL patients with no prior therapy. • Cohort 4: CLL/SLL patients treated with prior therapy, BTK inhibitor naive. • Cohort 5: WM patients treated with a prior BTK inhibitor containing regimen. • Cohort 6: MZL patients treated with a prior BTK inhibitor containing regimen. • Cohort 7: (Not otherwise specified) defined as CLL/SLL or NHL not otherwise specified in Cohorts 1 through 6, inclusive of CLL/SLL or NHL, Richter's transformation, blastoid MCL, and patients with history of CNS involvement or primary CNS lymphoma.
# Dosing during Phase 2 will be at the RP2D of 200 mg QD. The cycle length will be 28 days. BTK-I will be administered to the Phase 2 patients in oral tablet form at the RP2D. The dose (and schedule) chosen for Phase 2 may be changed by the SRC based on emerging data (e.g., PK, safety, and/or efficacy) as long as the new dose is not greater than the highest dose that has a DLT <33% and is determined to be safe by the SRC in Phase 1. If the RP2D is changed based on emerging data, patients enrolled to Phase 2 at a different dose may have the dose changed to the new dose.
# [2] = of 13 with prior covalent BTK inhibitor
smiles,measurement,setting,value
"COc1ccc(F)cc1C(=O)NCc1ccc(-c2nn([C@@H](C)C(F)(F)F)c(N)c2C(N)=O)cc1 [BTK-I, (S)-5-amino-3-(4-((5-fluoro-2-methoxybenzamido)methyl)phenyl)-1-(1,1,1-trifluoropropane-2-yl)-1H-pyrazole-4-carboxamide]",inhibition of xenograft tumor growth,TMD8 BTK WT cells,potently inhibited the growth
same,ORR,[1]; 13 patients with prior covalent BTK inhibitor,69%
same,ORR,[1]; 19 efficacy-evaluable WM patients,68%
same,WM responders ongoing,[1]; median follow-up 4.6 months,Ten of 13
same,"MR, patients",[1]; [2],4
same,"PR, patients",[1]; [2],5
same,"PR, patients",[1]; of 19 efficacy-evaluable,9
same,"minor response (MR), patients",[1]; of 19 efficacy-evaluable,4

# — patent US12551463B2, “Dosing of a Bruton's tyrosine kinase inhibitor” (Loxo Oncology, Inc., priority 2019, dated 2026)
